From PubChem BioAssay (NCI)
“And” between values parts separate entries of the source, which are not always exact repeats. Equal values may be shown once.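 A five-concentration, 48-hour dose response in 96-well plates underlies each endpoint, interpolated linearly between surrounding concentrations. GI50 = concentration required for 50% inhibition of growth. At the TGI there is no net growth.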

Assays:
Assay in all cases: NCI tumour cell line growth inhibition, 48 h
DLD-1 colon = system: DLD-1 colon
HOP-62 NSCLC = system: HOP-62 NSCLC
LXFL 529 NSCLC = system: LXFL 529 NSCLC
CAKI-1 renal = system: CAKI-1 renal
786-0 renal = system: 786-0 renal
KM12 colon = system: KM12 colon
MALME-3M melanoma = system: MALME-3M melanoma
OVCAR-8 ovarian = system: OVCAR-8 ovarian
T-47D breast = system: T-47D breast
HS 578T breast = system: HS 578T breast

| Structure (SMILES) | TGI (DLD-1 colon) [µM] | TGI (HOP-62 NSCLC) | TGI (LXFL 529 NSCLC) [µM] | TGI (CAKI-1 renal) | TGI (786-0 renal) | TGI (KM12 colon) | TGI (MALME-3M melanoma) | TGI (OVCAR-8 ovarian) | TGI (T-47D breast) | TGI (HS 578T breast) | GI50 (T-47D breast) | GI50 (HOP-62 NSCLC) | GI50 (MALME-3M melanoma) | GI50 (OVCAR-8 ovarian) | GI50 (CAKI-1 renal) | GI50 (786-0 renal) | GI50 (KM12 colon) | GI50 (HS 578T breast) |
| --- | --- | --- | --- | --- | --- | --- | --- | --- | --- | --- | --- | --- | --- | --- | --- | --- | --- | --- |
| COC(=O)c1c/c(=N\NC(=O)CC(=O)Nc2ccccc2OC)c2ccccc2o1 | > 100 | > 100 µM | > 100 | > 100 µM | > 100 µM | > 100 µM | – | – | – | – | – | – | – | – | – | – | – | – |
| O=C1/C(=C/c2ccccc2)CNC/C1=C\c1ccccc1 | 1.08 | 7.46 µM | 3.58 | 17.6 µM | 2.93 µM | 2.66 µM | 9.3 µM | 5.88 µM | – | – | – | – | – | – | – | – | – | – |
| CCCCN=C(NC#N)NCCCC | > 100 | > 100 µM | > 100 | > 100 µM | > 100 µM | > 100 µM | > 100 µM | > 100 µM | – | – | – | – | – | – | – | – | – | – |
| O=C(c1ccccc1)c1nnc(C(=O)c2ccccc2)nn1 | > 344 | > 344 µM | > 344 | > 344 µM | > 344 µM | > 344 µM | > 344 µM | > 344 µM | – | – | – | – | – | – | – | – | – | – |
| Cc1cccc(C)c1NC(=O)C(=O)C1C(=O)NC(=O)NC1=O | > 100 | > 100 µM | > 100 | > 100 µM | > 100 µM | > 100 µM | > 100 µM | > 100 µM | – | – | – | – | – | – | – | – | – | – |
| O/N=C/C1c2ccccc2-c2ccccc21 | – | 34.2 µM | – | 33.2 µM | 21.9 µM | 37.4 µM | 31.9 µM | 41.5 µM | 56.3 µM | 47.6 µM | – | – | – | – | – | – | – | – |
| COc1cc2c(c(O)c1Br)C(=O)c1c(O)cc(C[C@H](C)O)cc1[C@H]2[C@H]1c2cc(C[C@H](C)O)cc(O)c2C(=O)c2c1cc(OC)c(Br)c2O | – | 63.1 µM and 96 µM | – | 33.3 µM and 94.6 µM | 67.5 µM and > 100 µM | 37.9 µM and 82.4 µM | 17 µM and 26.1 µM | 67.5 µM and > 100 µM | 13.2 µM and 23.4 µM | 67.5 µM and 65.9 µM | 2.04 µM and 4.09 µM | 6.76 µM and 19.1 µM | 6.65 µM and 12.8 µM | 3.23 µM and 7.56 µM | 10.6 µM and 28.4 µM | 23 µM and 14.1 µM | 5.96 µM and 26.4 µM | 2.99 µM and 4.1 µM |
| C=CC(=O)N1CC2(CCN(c3nc(OC4CCN(CCCOC)CC4)nc4c(OCC(F)(F)F)c(-c5c(C)ccc6[nH]ncc56)c(C5CC5)cc34)CC2)C1 | – | 19.6 µM | – | 15.2 µM | 18.2 µM | 4.04 µM | 3.14 µM | 17.4 µM | 9.46 µM | 13.3 µM | 2.71 µM | – | 1.66 µM | 3.26 µM | 4.15 µM | 4.4 µM | 1.96 µM | 2.91 µM |
| Cc1cc2c(cc1C)[n+](=O)c(C(=O)C/C(=N/NC(=O)CC#N)C(=O)Nc1ccccc1C(F)(F)F)c(C)n2[O-] | – | > 100 µM | > 100 | > 100 µM | > 100 µM | > 100 µM | > 100 µM | > 100 µM | – | – | – | – | – | – | – | – | – | – |
| Cn1c(=O)c2[nH]c(SCc3ccccn3)nc2n(C)c1=S | – | > 100 µM | – | > 100 µM | > 100 µM | > 100 µM | > 100 µM | > 100 µM | > 100 µM | > 100 µM | – | – | – | – | – | – | – | – |
| COC(=O)/C(=N/NC(=O)C[N+](C)(C)C)C(C(=O)OC)C(=O)C(=O)Nc1ccc(F)cc1 (configuration not stated) | > 100 | > 100 µM | > 100 | > 100 µM | > 100 µM | > 100 µM | > 100 µM | – | – | – | – | – | – | – | – | – | – | – |
| O=C1CCC(=O)N2CCCCN12 | > 100 | > 100 µM | > 100 | > 100 µM | > 100 µM | > 100 µM | > 100 µM | > 100 µM | – | – | – | – | – | – | – | – | – | – |
